Measurements as given in patent US4443436A, “C-20-Modified macrolide derivatives of the macrolide antibiotics tylosin, desmycosin, macrocin, and lactenocin” (Eli Lilly and Company, priority 1982, dated 1984).
In brackets after ≈: the same amount, converted by molar mass. Read-outs that look alike come from different tables or passages of the source.

Columns and labels:
[1] = system: Haemophilus influenzae Holt; test: MIC, standard agar-dilution assay, Haemophilus influenzae Holt; format: cell-based; settings: Haemophilus influenzae Holt, ampicillin-sensitive strain
[2] = system: Streptococcus pyogenes C203; test: In vivo protection of mice experimentally infected with S. pyogenes C203; settings: mice, doses given 1 and 4 hours post-infection; for ED50: Streptococcus pyogenes
Description: The C-20 modified derivatives of this invention have shown in vivo antimicrobial activity against experimentally-induced infections in laboratory animals. When two doses of test compound were administered to mice experimentally infected with S. pyogenes C203, the activity observed was measured as an ED50 value [effective dose in mg/kg to protect 50% of the test animals: see Warren Wick, et al., J. Bacteriol. 81, 233-235 (1961)].

[3] = system: Mycoplasma synoviae; test: MIC, broth-dilution microtiter test, Mycoplasma synoviae; format: cell-based
Source text: (§1) The MIC's in Table X were obtained using conventional broth-dilution microtiter tests.

[4] = system: Streptococcus Group D X66; test: MIC, standard agar-dilution assay, Streptococcus Group D X66; format: cell-based; settings: Streptococcus Group D X66, agar dilution
[5] = system: Haemophilus influenzae R252; test: MIC, standard agar-dilution assay, Haemophilus influenzae R252; format: cell-based
[6] = system: Staphylococcus aureus; test: MIC, broth-dilution microtiter test, Staphylococcus aureus; format: cell-based
Source text: as §1

[7] = system: Mycoplasma hyorhinis; test: MIC, broth-dilution microtiter test, Mycoplasma hyorhinis; format: cell-based; settings: Mycoplasma hyorhinis, broth-dilution microtiter
Source text: as §1

[8] = system: Staphylococcus aureus X400; test: MIC, standard agar-dilution assay, Staphylococcus aureus X400; format: cell-based
[9] = system: Pasteurella multocida 17E; test: MIC, broth-dilution microtiter test, Pasteurella multocida 17E; format: cell-based
Source text: as §1

[10] = system: Staphylococcus aureus V41; test: MIC, standard agar-dilution assay, Staphylococcus aureus V41; format: cell-based
[11] = system: Streptococcus Group 9960; test: MIC, standard agar-dilution assay, Streptococcus Group 9960; format: cell-based; settings: Streptococcus Group 9960, agar dilution
[12] = system: Streptococcus bovis 80; test: MIC, broth-dilution microtiter test, Streptococcus bovis 80; format: cell-based; settings: Streptococcus bovis 80, broth-dilution microtiter
Source text: as §1

[13] = system: Streptococcus pneumoniae Park I; test: microbe, parasite or virus in culture; format: cell-based
[14] = system: Staphylococcus epidermidis EPI1; test: MIC, standard agar-dilution assay, Staphylococcus epidermidis EPI1; format: cell-based
[15] = system: Staphylococcus aureus S13E; test: MIC, standard agar-dilution assay, Staphylococcus aureus S13E; format: cell-based
[16] = system: Mycoplasma gallisepticum; test: MIC, broth-dilution microtiter test, Mycoplasma gallisepticum; format: cell-based; settings: Mycoplasma gallisepticum, broth-dilution microtiter
Source text: as §1

[17] = system: Staphylococcus aureus X1.1; test: MIC, standard agar-dilution assay, Staphylococcus aureus X1.1; format: cell-based
[18] = system: Staphylococcus epidermidis EPI2; test: MIC, standard agar-dilution assay, Staphylococcus epidermidis EPI2; format: cell-based
[19] = system: Mycoplasma hyopneumoniae; test: MIC, broth-dilution microtiter test, Mycoplasma hyopneumoniae; format: cell-based; settings: Mycoplasma hyopneumoniae, broth-dilution microtiter
Source text: as §1

[20] = system: Pasteurella hemolytica 22C; test: MIC, broth-dilution microtiter test, Pasteurella hemolytica 22C; format: cell-based
Source text: as §1

[21] = system: Pasteurella multocida 60A; test: MIC, broth-dilution microtiter test, Pasteurella multocida 60A; format: cell-based
Source text: as §1

[22] = system: Streptococcus pyogenes C203; test: MIC, standard agar-dilution assay, Streptococcus pyogenes C203; format: cell-based
[23] = Mycoplasma synoviae, broth-dilution microtiter
[24] = Haemophilus influenzae R252, ampicillin-resistant strain, agar dilution
[25] = Staphylococcus aureus X400, methicillin-resistant strain, agar dilution
[26] = Pasteurella multocida 17E, bovine isolate, broth-dilution microtiter
[27] = Staphylococcus aureus V41, penicillin-resistant strain, agar dilution
[28] = Streptococcus pneumoniae Park I, agar dilution
[29] = Staphylococcus epidermidis EPI1, agar dilution
[30] = Staphylococcus aureus S13E, agar dilution
[31] = Staphylococcus aureus X1.1, agar dilution
[32] = Staphylococcus epidermidis EPI2, agar dilution
[33] = Pasteurella hemolytica 22C, broth-dilution microtiter
[34] = Pasteurella multocida 60A, avian isolate, broth-dilution microtiter
[35] = Streptococcus pyogenes C203, agar dilution

CCC1OC(=O)CC(O)C(C)C(OC2OC(C)C(O)C(N(C)C)C2O)C(CCOc2ccccc2)CC(C)C(=O)C=CC(C)=CC1COC1OC(C)C(O)C(O)C1OC (stereo not shown) [Compound 58, 20-DH-20-O-Phenyllactenocin]
MIC ([1]; agar dilution): 32 µg/mL (≈ 38.3 µM)
ED50, Oral ([2]; oral): 50 mg/kg × 2
ED50, Subcutaneous ([2]; subcutaneous): 3.2 mg/kg × 2
MIC [3, 23]: 6.25 µg/mL (≈ 7.48 µM)
MIC [4]: 4 µg/mL (≈ 4.78 µM)
MIC [5, 24]: 16 µg/mL (≈ 19.1 µM)
MIC ([6]; broth-dilution microtiter): 0.39 µg/mL (≈ 0.466 µM)
MIC [7]: 50 µg/mL (≈ 59.8 µM)
MIC [8, 25]: 0.25 µg/mL (≈ 0.299 µM)
MIC [9, 26]: 25 µg/mL (≈ 29.9 µM)
MIC [10, 27]: 0.25 µg/mL (≈ 0.299 µM)
MIC [11]: 8 µg/mL (≈ 9.57 µM)
MIC [12]: 1.56 µg/mL (≈ 1.87 µM)
MIC [13, 28]: 0.25 µg/mL (≈ 0.299 µM)
MIC [14, 29]: 0.25 µg/mL (≈ 0.299 µM)
MIC [15, 30]: 0.25 µg/mL (≈ 0.299 µM)
MIC [16]: 0.78 µg/mL (≈ 0.933 µM)
MIC [17, 31]: 0.25 µg/mL (≈ 0.299 µM)
MIC [18, 32]: 0.25 µg/mL (≈ 0.299 µM)
MIC [19]: 6.25 µg/mL (≈ 7.48 µM)
MIC [20, 33]: 25 µg/mL (≈ 29.9 µM)
MIC [21, 34]: 12.5 µg/mL (≈ 15 µM)
MIC [22, 35]: 0.06 µg/mL (≈ 0.0718 µM)

CCC1OC(=O)CC(O)C(C)C(OC2OC(C)C(O)C(N(C)C)C2O)C(CCOC(C(F)(F)F)C(F)(F)F)CC(C)C(=O)C=CC(C)=CC1COC1OC(C)C(O)C(OC)C1OC (stereo not shown) [Compound 32, 20-DH-20-O-[2,2,2-trifluoro-1-(trifluoromethyl)ethyl]desmycosin]
MIC ([1]; read-out: MIC): 64 µg/mL (≈ 69.3 µM)
ED50 ([2]; C203, sc, subcutaneous, read-out: ED50, Subcutaneous): > 10 mg/kg
ED50 ([2]; C203, oral, read-out: ED50, Oral): 25 mg/kg
MIC ([3]; Mycoplasmopsis synoviae): 1.56 µg/mL (≈ 1.69 µM)
MIC ([4]; read-out: MIC): 32 µg/mL (≈ 34.6 µM)
MIC ([5]; Haemophilus influenzae, R252): 128 µg/mL (≈ 139 µM)
MIC [6]: 0.78 µg/mL (≈ 0.844 µM)
MIC ([7]; read-out: MIC): > 50 µg/mL
MIC ([8]; Staphylococcus aureus, X400): 0.5 µg/mL (≈ 0.541 µM)
MIC ([9]; Pasteurella multocida, 17E): 50 µg/mL (≈ 54.1 µM)
MIC ([10]; Staphylococcus aureus, V41): 0.5 µg/mL (≈ 0.541 µM)
MIC ([11]; GROUP9960, read-out: MIC): 32 µg/mL (≈ 34.6 µM)
MIC ([12]; Streptococcus equinus, read-out: MIC): 12.5 µg/mL (≈ 13.5 µM)
MIC ([13]; Streptococcus pneumoniae): 4 µg/mL (≈ 4.33 µM)
MIC ([14]; Staphylococcus epidermidis, EPI1): 0.5 µg/mL (≈ 0.541 µM)
MIC ([15]; Staphylococcus aureus, S13E): 0.5 µg/mL (≈ 0.541 µM)
MIC ([16]; Mycoplasmoides gallisepticum, read-out: MIC): 0.19 µg/mL (≈ 0.206 µM)
MIC ([17]; Staphylococcus aureus, X1.1): 0.5 µg/mL (≈ 0.541 µM)
MIC ([18]; Staphylococcus epidermidis, EPI2): 0.25 µg/mL (≈ 0.271 µM)
MIC ([19]; Mesomycoplasma hyopneumoniae, read-out: MIC): > 25 µg/mL
MIC ([20]; Pasteurella, 22C): 50 µg/mL (≈ 54.1 µM)
MIC ([21]; Pasteurella multocida, 60A): 50 µg/mL (≈ 54.1 µM)
MIC ([22]; Streptococcus pyogenes, C203): 0.5 µg/mL (≈ 0.541 µM)

CCC1OC(=O)CC(O)C(C)C(OC2OC(C)C(O)C(N(C)C)C2O)C(CCOc2cccc(Oc3ccccc3)c2)CC(C)C(=O)C=CC(C)=CC1COC1OC(C)C(O)C(OC)C1OC (stereo not shown) [Compound 48, 20-DH-20-O-(m-Phenoxyphenyl)desmycosin]
MIC ([1]; agar dilution): 16 µg/mL (≈ 17 µM)
ED50, Oral ([2]; oral): 35 mg/kg × 2
ED50, Subcutaneous ([2]; subcutaneous): > 10 mg/kg × 2
MIC [3, 23]: 0.19 µg/mL (≈ 0.202 µM)
MIC [4]: 0.5 µg/mL (≈ 0.531 µM)
MIC [5, 24]: 16 µg/mL (≈ 17 µM)
MIC ([6]; broth-dilution microtiter): 0.78 µg/mL (≈ 0.828 µM)
MIC [7]: 12.5 µg/mL (≈ 13.3 µM)
MIC [8, 25]: 0.5 µg/mL (≈ 0.531 µM)
MIC [9, 26]: 25 µg/mL (≈ 26.5 µM)
MIC [10, 27]: 0.5 µg/mL (≈ 0.531 µM)
MIC [11]: 1 µg/mL (≈ 1.06 µM)
MIC [12]: 0.09 µg/mL (≈ 0.0955 µM)
MIC [13, 28]: 0.25 µg/mL (≈ 0.265 µM)
MIC [14, 29]: 0.5 µg/mL (≈ 0.531 µM)
MIC [15, 30]: 0.5 µg/mL (≈ 0.531 µM)
MIC [16]: < 0.05 µg/mL
MIC [17, 31]: 0.5 µg/mL (≈ 0.531 µM)
MIC [18, 32]: 0.25 µg/mL (≈ 0.265 µM)
MIC [19]: 1.56 µg/mL (≈ 1.66 µM)
MIC [20, 33]: 25 µg/mL (≈ 26.5 µM)
MIC [21, 34]: 25 µg/mL (≈ 26.5 µM)
MIC [22, 35]: 0.25 µg/mL (≈ 0.265 µM)

CCC1OC(=O)CC(O)C(C)C(OC2OC(C)C(O)C(N(C)C)C2OC(C)=O)C(CCOc2ccccc2)CC(C)C(=O)C=CC(C)=CC1COC1OC(C)C(O)C(OC)C1OC (stereo not shown) [Compound 67, 20-DH-20-O-Phenyl-2'-O-acetyldesmycosin]
MIC ([1]; agar dilution): 32 µg/mL (≈ 35.9 µM)
ED50, Oral ([2]; oral): 9 mg/kg × 2
ED50, Subcutaneous ([2]; subcutaneous): 1.0 mg/kg × 2
MIC [3, 23]: 3.12 µg/mL (≈ 3.5 µM)
MIC [4]: 4 µg/mL (≈ 4.48 µM)
MIC [5, 24]: 16 µg/mL (≈ 17.9 µM)
MIC ([6]; broth-dilution microtiter): 0.78 µg/mL (≈ 0.874 µM)
MIC [7]: 50 µg/mL (≈ 56 µM)
MIC [8, 25]: 0.5 µg/mL (≈ 0.56 µM)
MIC [9, 26]: 25 µg/mL (≈ 28 µM)
MIC [10, 27]: 0.25 µg/mL (≈ 0.28 µM)
MIC [11]: 8 µg/mL (≈ 8.97 µM)
MIC [12]: 12.5 µg/mL (≈ 14 µM)
MIC [13, 28]: 0.25 µg/mL (≈ 0.28 µM)
MIC [14, 29]: 0.25 µg/mL (≈ 0.28 µM)
MIC [15, 30]: 0.25 µg/mL (≈ 0.28 µM)
MIC [16]: 0.39 µg/mL (≈ 0.437 µM)
MIC [17, 31]: 0.25 µg/mL (≈ 0.28 µM)
MIC [18, 32]: 0.12 µg/mL (≈ 0.135 µM)
MIC [19]: 12.5 µg/mL (≈ 14 µM)
MIC [20, 33]: 25 µg/mL (≈ 28 µM)
MIC [21, 34]: 25 µg/mL (≈ 28 µM)
MIC [22, 35]: 1 µg/mL (≈ 1.12 µM)

CCC1OC(=O)CC(O)C(C)C(OC2OC(C)C(OC(C)=O)C(N(C)C)C2OC(C)=O)C(CCOc2ccccc2)CC(C)C(=O)C=CC(C)=CC1COC1OC(C)C(O)C(OC)C1OC (stereo not shown) [Compound 68, 20-DH-20-O-Phenyl-2',4'-di-O-acetyldesmycosin]
MIC ([1]; agar dilution): 32 µg/mL (≈ 34.3 µM)
ED50, Oral ([2]; oral): 16 mg/kg × 2
ED50, Subcutaneous ([2]; subcutaneous): 2.9 mg/kg × 2
MIC [3, 23]: 3.12 µg/mL (≈ 3.34 µM)
MIC [4]: 4 µg/mL (≈ 4.28 µM)
MIC [5, 24]: 16 µg/mL (≈ 17.1 µM)
MIC ([6]; broth-dilution microtiter): 0.39 µg/mL (≈ 0.418 µM)
MIC [7]: -- (Not active at 50 mcg/ml, the highest level tested)
MIC [8, 25]: 0.5 µg/mL (≈ 0.535 µM)
MIC [9, 26]: 25 µg/mL (≈ 26.8 µM)
MIC [10, 27]: 0.5 µg/mL (≈ 0.535 µM)
MIC [11]: 8 µg/mL (≈ 8.56 µM)
MIC [12]: 6.25 µg/mL (≈ 6.69 µM)
MIC [13, 28]: 0.5 µg/mL (≈ 0.535 µM)
MIC [14, 29]: 0.5 µg/mL (≈ 0.535 µM)
MIC [15, 30]: 0.5 µg/mL (≈ 0.535 µM)
MIC [16]: 0.39 µg/mL (≈ 0.418 µM)
MIC [17, 31]: 0.5 µg/mL (≈ 0.535 µM)
MIC [18, 32]: 0.12 µg/mL (≈ 0.128 µM)
MIC [19]: 12.5 µg/mL (≈ 13.4 µM)
MIC [20, 33]: 25 µg/mL (≈ 26.8 µM)
MIC [21, 34]: 25 µg/mL (≈ 26.8 µM)
MIC [22, 35]: 0.5 µg/mL (≈ 0.535 µM)
